pEC50: −log10 of the molar value. Blank lines part the entries; values can stand above or below the compound they belong to.
Columns and labels:
[1] = Sucrose self-administration; type: in vivo; details: pretreatment (±)-29 15 and 25 mg/kg, (±)-19 1 and 5 mg/kg
[2] = Pharmacokinetics in rats after oral administration; type: in vivo, rat; details: 10 mg/kg oral
Experimental: Male Long-Evans rats with body weights ˜250 grams (Charles River Laboratories, Raleigh, NC, USA) were used in this study. All rats were housed individually in a climate-controlled room under a 12 h light/dark cycle. Food and water were available ad libitum throughout the experiments. All experimental procedures were conducted in accordance with the Guide for the Care and Use of Laboratory Animals and were approved by the Animal Care and Use Committee of the National Institute on Drug Abuse of the U.S. National Institutes of Health. Experimental (oral gavage) procedures: The animals were gently restrained (grasp the animal by the loose skin of the neck and back) to immobilize the head but not such that the animals vocalize or show other signs of distress. Maintained the animal in an upright (vertical) position and passed the gavage needle (19-gauge) along the side of the mouth. Following the roof of the mouth, advanced the needle into the esophagus and toward the stomach. After the needle was passed to the correct length, the compound was injected. […] A volume of 3 μL was injected onto the ultra-performance liquid chromatography (UPLC) instrument for quantitative analysis using a temperature-controlled autosampler operating at 10° C. […] Quantification was performed in multiple-reaction monitoring (MRM) mode. […]

[3] = Phase I metabolic stability in monkey liver microsomes; type: in vitro ADME, rhesus monkey; details: monkey liver microsomes, Phase I
Experimental: Methods: Phase I metabolic stability assay was conducted in rat and rhesus monkey liver microsomes. For phase I metabolism, the reaction was carried out with 100 mM potassium phosphate buffer, pH 7.4, in the presence of NADPH regenerating system (1.3 mM NADPH, 3.3 mM glucose 6-phosphate, 3.3 mM MgCl2, 0.4 U/mL glucose-6-phosphate dehydrogenase, 50 μM sodium citrate). Reactions in triplicate were initiated by addition of the liver microsomes to the incubation mixture (compound final concentration was 10 μM; 0.5 mg/mL microsomes). Negative controls in the absence of cofactors were carried out to determine the specific cofactor-free degradation. Compound disappearance was monitored via LC/MS/MS. Chromatographic analysis was performed using an Accela™ ultra high-performance system consisting of an analytical pump, and an autosampler coupled with TSQ Vantage mass spectrometer (Thermo Fisher Scientific Inc., Waltham MA). […] The mobile phase used was composed of 0.1% Formic Acid in Acetonitrile and 0.1% Formic Acid in H2O with gradient elution, starting with 10% (organic) linearly increasing to 99% up to 2 min, maintaining at 99% (2-2.5 min) and re-equilibrating to 10% by 2.7 min. The total run time for each analyte was 5.0 min.

[4] = target: T1, human D2R (Homo sapiens, UniProt P14416); assay: Radioligand competition binding, [3H]N-methylspiperone, D2R; details: Table 1A; ratio of Ki values
T1 construct: expressed in transfected cells; host or cells: HEK293
T1 sequence (P14416 whole entry): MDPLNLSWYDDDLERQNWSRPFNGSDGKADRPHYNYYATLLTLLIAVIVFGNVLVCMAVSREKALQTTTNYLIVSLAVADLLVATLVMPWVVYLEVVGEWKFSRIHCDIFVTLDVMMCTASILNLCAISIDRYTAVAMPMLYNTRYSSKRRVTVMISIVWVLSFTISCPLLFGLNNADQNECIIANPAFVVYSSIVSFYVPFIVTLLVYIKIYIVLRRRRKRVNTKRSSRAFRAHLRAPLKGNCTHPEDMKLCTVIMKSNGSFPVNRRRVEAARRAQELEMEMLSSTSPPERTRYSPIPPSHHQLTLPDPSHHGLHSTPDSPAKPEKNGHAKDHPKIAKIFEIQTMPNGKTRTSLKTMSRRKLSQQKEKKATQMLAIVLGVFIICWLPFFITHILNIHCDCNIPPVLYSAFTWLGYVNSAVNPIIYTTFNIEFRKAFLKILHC
Experimental: Binding at dopamine D2-like receptors was determined using previously described methods. (Chen et al. “Tranylcypromine substituted cis-hydroxycyclobutylnaphthamides as potent and selective dopamine D(3) receptor antagonists.” J. Med. Chem. 2014, 57, 4962-4968) Membranes were prepared from HEK293 cells expressing human D2R, D3R or D4R, grown in a 50:50 mix of DMEM and Ham's F12 culture media, supplemented with 20 mM HEPES, 2 mM L-glutamine, 0.1 mM non-essential amino acids, 1× antibiotic/antimycotic, 10% heat-inactivated fetal bovine serum, and 200 μg/mL hygromycin (Life Technologies, Grand Island, NY) and kept in an incubator at 37° C. and 5% CO2. Upon reaching 80-90% confluence, cells were harvested using pre-mixed Earle's Balanced Salt Solution (EBSS) with 5 μM EDTA (Life Technologies) and centrifuged at 3000 rpm for 10 min at 21° C. The supernatant was removed and the pellet was resuspended in 10 mL hypotonic lysis buffer (5 mM MgCl2·6H2O, 5 mM Tris, pH 7.4 at 4° C.) and centrifuged at 20,000 rpm for 30 min at 4° C. The pellet was then resuspended in fresh EBSS buffer made from 8.7 g/L Earle's Balanced Salts without phenol red (US Biological, Salem, MA), 2.2 g/L sodium bicarbonate, pH to 7.4. A Bradford protein assay (Bio-Rad, Hercules, CA) was used to determine the protein concentration and membranes were diluted to 500 μg/mL and stored in a −80° C. freezer for later use.
(§1) Radioligand competition binding experiments were conducted using thawed membranes. Test compounds were freshly dissolved in 30% DMSO and 70% H2O to a stock concentration of 100 μM. To assist the solubilization of free-base compounds, 10 μl of glacial acetic acid was added along with the DMSO. Each test compound was then diluted into 13 half-log serial dilutions using 30% DMSO vehicle; final test concentrations ranged from 10 μM to 10 pM. Previously frozen membranes were diluted in fresh EBSS to a 100 μg/mL (for hD2R or hD3R) or 200 μg/mL (hD4R) stock for binding. Radioligand competition experiments were conducted in glass tubes containing 300 μl fresh EBSS buffer with 0.2 mM sodium metabisulfite, 50 μl of diluted test compound, 100 μl of membranes (10 μg total protein for hD2R or hD3R, 20 μg total protein for hD4R), and 50 μl of [^3H]N-methylspiperone (0.4 nM final concentration; Perkin Elmer). Nonspecific binding was determined using 10 μM butaclamol (Sigma-Aldrich, St. Louis, MO) and total binding was determined with 30% DMSO vehicle. All compound dilutions were tested in triplicate and the reaction incubated for one hour at room temperature. The reaction was terminated by filtration through Whatman GF/B filters, presoaked for one hour in 0.5% polyethylenimine, using a Brandel R48 filtering manifold (Brandel Instruments, Gaithersburg, MD). The filters were washed 3 times with 3 mL of ice cold EBSS buffer and transferred to scintillation vials. 3 mL CytoScint liquid scintillation cocktail (MP Biomedicals, Solon, OH) was added and vials were counted using a Perkin Elmer Tri-Carb 2910 TR liquid scintillation counter (Waltham, MA). IC50 values for each compound were determined from dose-response curves and Ki values were calculated using the Cheng-Prusoff equation; these analyses were performed using GraphPad Prism version 5.00 for Windows (GraphPad Software, San Diego, CA). Reported Ki values were determined from least three independent experiments.

[5] = target: T2, human dopamine D3R (Homo sapiens, UniProt P35462); assay: D3R mitogenesis assay in CHO cells; type: cell-based; details: stimulation of mitogenesis, CHO cells with human D3R; read-out: Agonist EC50 ± SEM
T2 construct: expressed in transfected cells; host or cells: CHO
T2 sequence (P35462 whole entry): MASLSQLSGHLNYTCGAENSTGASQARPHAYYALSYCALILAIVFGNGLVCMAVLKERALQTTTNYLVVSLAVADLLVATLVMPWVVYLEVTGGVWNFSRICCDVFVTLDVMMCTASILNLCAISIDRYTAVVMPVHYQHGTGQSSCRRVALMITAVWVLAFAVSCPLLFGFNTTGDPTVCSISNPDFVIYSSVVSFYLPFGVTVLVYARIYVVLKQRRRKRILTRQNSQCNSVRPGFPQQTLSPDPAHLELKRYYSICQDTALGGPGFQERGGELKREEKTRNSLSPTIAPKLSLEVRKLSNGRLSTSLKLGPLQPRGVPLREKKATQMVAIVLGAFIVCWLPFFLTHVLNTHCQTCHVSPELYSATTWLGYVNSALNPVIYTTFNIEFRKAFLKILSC

[6] = target: T3, human D3R (Homo sapiens, UniProt P35462); assay: Radioligand competition binding, [3H]N-methylspiperone, D3R; details: Table 1A; ratio of Ki values
T3 construct: expressed in transfected cells; host or cells: HEK293
T3 sequence (P35462 whole entry): as above
Experimental: Binding at dopamine D2-like receptors was determined using previously described methods. […] Upon reaching 80-90% confluence, cells were harvested using pre-mixed Earle's Balanced Salt Solution (EBSS) with 5 μM EDTA (Life Technologies) and centrifuged at 3000 rpm for 10 min at 21° C. The supernatant was removed and the pellet was resuspended in 10 mL hypotonic lysis buffer (5 mM MgCl2·6H2O, 5 mM Tris, pH 7.4 at 4° C.) and centrifuged at 20,000 rpm for 30 min at 4° C. The pellet was then resuspended in fresh EBSS buffer made from 8.7 g/L Earle's Balanced Salts without phenol red (US Biological, Salem, MA), 2.2 g/L sodium bicarbonate, pH to 7.4. A Bradford protein assay (Bio-Rad, Hercules, CA) was used to determine the protein concentration and membranes were diluted to 500 μg/mL and stored in a −80° C. freezer for later use.
as §1, with “3 mL CytoScint liquid scintillation cocktail (MP Biomedicals, Solon, OH) was added and vials were counted using a Perkin Elmer Tri-Carb 2910 TR liquid scintillation counter (Waltham, MA).” left out

SMILES: CCc1cccc(N2CCN(CC(O)CCNC(=O)c3cc4ccccc4[nH]3)CC2)c1Cl (racemic) [Compound 19, N-(4-(4-(2-chloro-3-ethylphenyl)piperazin-1-yl)-3-hydroxybutyl)-1H-indole-2-carboxamide]
sucrose self-administration [1]: no significant effects on sucrose self-administration

% at 30 min. ([3]; 30 min): 9%
% at 60 min. ([3]; 60 min): 4%
SMILES: CCc1cc(Cl)c(OC)c(N2CCN(C[C@H](O)CCNC(=O)c3cc4ccccc4[nH]3)CC2)c1 [(R)-29, (R)—N-(4-(4-(3-chloro-5-ethyl-2-methoxyphenyl)piperazin-1-yl)-3-hydroxybutyl)-1H-indole-2-carboxamide]
exposures in brain and plasma, R- versus S-enantiomer ([2]; FIG. 12A): twice higher exposures in both brain and plasma

Kp ([2]; male, Long-Evans, rat, brain and plasma, read-out: brain/plasma ratio): 6
SMILES: CCc1cccc(N2CCN(C[C@@H](O)CCNC(=O)c3cc4ccccc4[nH]3)CC2)c1Cl [(S)-19, (S)—N-(4-(4-(2-chloro-3-ethylphenyl)piperazin-1-yl)-3-hydroxybutyl)-1H-indole-2-carboxamide]

D4/D2 [4]: 5.2
pEC50 [5]: < 5.18
D4/D3 [6]: 224
SMILES: CCc1cc(Cl)c(OC)c(N2CCN(CCCCNC(=O)c3cc4ccccc4o3)CC2)c1 [Compound 30, N-(4-(4-(3-Chloro-5-ethyl-2-methoxyphenyl)piperazin-1-yl)butyl)benzofuran-2-carboxamide]
